Laboratory results as given in patent US11141452B2, “Bifunctional compounds for relief of pain comprising an opioid receptor agonist moiety and a NK1 receptor antagonist moiety and methods for treating pain” (THE ARIZONA BOARD OF REGENTS ON BEHALF OF THE UNIVERSITY OF …, priority 2014, dated 2021).
“And” between values parts separate entries of the source, which are not always exact repeats. Equal entries are not always repeated. Where two headings read alike, the source gives them in different places. Non-standard residues stand in square brackets, D forms with d. Residues, ends and D or L forms follow the SMILES beside them. *: point of attachment. NH(3,5-(CF3)2-benzyl) = FC(F)(F)c1cc(CN*)cc(C(F)(F)F)c1; NMePhe(4-F) = CN[C@@H](Cc1ccc(F)cc1)C(=O)O; Phe(4-F) = N[C@@H](Cc1ccc(F)cc1)C(=O)O; Dmt = Cc1cc(O)cc(C)c1C[C@H](N)C(=O)O; NMeF = CN[C@@H](Cc1ccccc1)C(=O)O

Columns and labels:
DOR [1] = biological target: T1, DOR (Mus musculus, UniProt P32300); assay: Mouse isolated vas deferens (MVD) functional assay; assay type: cell-based
T1 construct: Male ICR mice under CO2 anesthesia were sacrificed by cervical dislocation and the vasa differentia removed; from tissue; host or cells: mouse vas deferens (ICR mice)
T1 sequence (P32300 whole entry): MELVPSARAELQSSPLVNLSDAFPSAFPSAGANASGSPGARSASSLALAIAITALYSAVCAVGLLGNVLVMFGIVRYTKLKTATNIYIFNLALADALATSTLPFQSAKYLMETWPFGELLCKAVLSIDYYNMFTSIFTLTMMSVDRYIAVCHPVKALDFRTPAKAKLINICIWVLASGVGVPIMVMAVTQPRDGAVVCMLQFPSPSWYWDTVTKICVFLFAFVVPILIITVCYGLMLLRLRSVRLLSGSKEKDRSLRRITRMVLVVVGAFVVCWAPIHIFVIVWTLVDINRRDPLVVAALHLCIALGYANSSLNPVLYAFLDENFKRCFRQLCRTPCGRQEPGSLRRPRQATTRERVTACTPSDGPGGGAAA

NK1R = biological target: T2, NK1R (Cavia porcellus, UniProt P30547); assay: GPI/LMMP functional assay at NK1R (agonist and antagonist testing); assay type: cell-based, guinea pig; details: for GPI/LMMP (NK1R) Agonist: agonist activity at the concentration in the cell
T2 construct: The longitudinal muscle with myenteric plexus (LMMP) was carefully separated from the circular muscle; from tissue; host or cells: guinea pig ileum longitudinal muscle with myenteric plexus
T2 sequence (P30547 whole entry): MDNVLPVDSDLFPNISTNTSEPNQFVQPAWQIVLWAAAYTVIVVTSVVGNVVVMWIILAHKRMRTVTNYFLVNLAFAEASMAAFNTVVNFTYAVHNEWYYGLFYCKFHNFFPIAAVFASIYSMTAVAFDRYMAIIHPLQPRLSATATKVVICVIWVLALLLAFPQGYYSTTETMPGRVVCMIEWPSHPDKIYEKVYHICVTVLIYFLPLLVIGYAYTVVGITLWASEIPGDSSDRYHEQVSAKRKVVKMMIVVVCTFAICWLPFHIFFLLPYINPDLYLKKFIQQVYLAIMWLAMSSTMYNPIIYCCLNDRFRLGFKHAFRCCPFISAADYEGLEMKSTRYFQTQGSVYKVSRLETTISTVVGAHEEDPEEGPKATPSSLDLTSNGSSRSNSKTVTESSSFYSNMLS

in vitro = details: rat, plasma
MOR [2] = assay: Radioligand binding assay at μ opioid receptor; details: for Log[IC50±] (μ): log IC50 ± error; for Ki^μ/Ki^δ: ratio of binding affinities MOR/DOR
Experimental: (§1) Binding affinities of these ligands were measured on radioligand binding assays. […] ([43]).

DOR [3] = biological target: DOR (Homo sapiens, UniProt P41143); assay: Radioligand binding assay at δ opioid receptor; details: for Ki: Ki^δ (nM)
Chain of DOR (Homo sapiens, UniProt P41143) (P41143 whole entry): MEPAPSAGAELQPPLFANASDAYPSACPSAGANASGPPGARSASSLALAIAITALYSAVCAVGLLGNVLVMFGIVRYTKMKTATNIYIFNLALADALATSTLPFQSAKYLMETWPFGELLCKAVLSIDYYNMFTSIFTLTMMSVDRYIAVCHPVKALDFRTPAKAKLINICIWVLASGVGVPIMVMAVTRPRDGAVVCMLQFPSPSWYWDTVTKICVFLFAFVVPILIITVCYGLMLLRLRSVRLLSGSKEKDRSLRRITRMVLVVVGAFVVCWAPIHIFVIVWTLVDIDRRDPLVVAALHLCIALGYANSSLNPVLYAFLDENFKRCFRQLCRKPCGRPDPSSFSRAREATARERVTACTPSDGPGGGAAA
Experimental: as §1

hNK1 = biological target: T3, hNK1 (Homo sapiens, UniProt P25103); assay: hNK1/CHO cell membrane radioligand binding assay ([3H]SP); details: for Ki: Ki^hNK1 (nM), hNK1/CHO membranes, [3H]SP; for Ki^hNK1/Ki^rNK1: ratio human/rat NK1
T3 construct: expressed in transfected cells; host or cells: CHO
T3 sequence (P25103 whole entry): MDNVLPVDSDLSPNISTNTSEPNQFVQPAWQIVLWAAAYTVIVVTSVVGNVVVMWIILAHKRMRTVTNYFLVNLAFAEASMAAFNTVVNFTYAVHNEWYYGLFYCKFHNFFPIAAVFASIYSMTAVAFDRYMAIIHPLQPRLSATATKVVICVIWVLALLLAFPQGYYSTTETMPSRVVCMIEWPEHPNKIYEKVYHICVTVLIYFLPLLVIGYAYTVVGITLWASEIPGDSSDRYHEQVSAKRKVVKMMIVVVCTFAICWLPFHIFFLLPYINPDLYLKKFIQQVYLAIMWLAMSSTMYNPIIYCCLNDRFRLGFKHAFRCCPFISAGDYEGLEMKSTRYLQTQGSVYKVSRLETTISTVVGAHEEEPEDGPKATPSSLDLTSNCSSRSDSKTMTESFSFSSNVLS

MOR [4] = assay: Guinea pig isolated ileum (GPI) functional assay; assay type: cell-based
rNK1 = rNK1 (Rattus norvegicus, UniProt P14600); assay: Radioligand binding assay at rat NK1 receptor; details: Ki^rNK1 (nM)
Chain of rNK1 (P14600 whole entry): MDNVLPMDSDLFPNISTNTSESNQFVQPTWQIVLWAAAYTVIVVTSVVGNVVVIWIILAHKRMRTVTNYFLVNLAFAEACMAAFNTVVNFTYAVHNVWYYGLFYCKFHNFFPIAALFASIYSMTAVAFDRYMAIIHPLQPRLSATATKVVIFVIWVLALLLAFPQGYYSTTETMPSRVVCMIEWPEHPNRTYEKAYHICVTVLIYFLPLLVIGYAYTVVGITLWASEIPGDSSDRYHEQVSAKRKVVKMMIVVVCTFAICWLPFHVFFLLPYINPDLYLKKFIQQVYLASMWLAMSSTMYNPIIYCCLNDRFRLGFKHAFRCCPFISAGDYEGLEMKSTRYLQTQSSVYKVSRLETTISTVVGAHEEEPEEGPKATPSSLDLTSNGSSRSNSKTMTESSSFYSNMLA
Experimental: as §1

[5] = MVD (DOR) IC50 (nM), agonist activity, electrically stimulated tissue
[6] = agonist activity, electrically stimulated tissue, read-out: GPI (MOR) IC50
[7] = GPI/LMMP (NK1R) Ke (nM) ± S.E.M., antagonist activity
[8] = head of Table IX, read-out: GPI (MOR) ID50

SMILES	higher agonist activity at DOR compared to MOR (functional assays) (DOR [1]) [times]	IC50 (DOR [1]; [5])	GPI/LMMP (NK1R) Agonist (NK1R)	half-life (in vitro) [h]	Ki (MOR [2]) [µM]	Log[IC50±] (μ) (MOR [2])	Ki^μ/Ki^δ (MOR [2])	binding selectivity for DOR over MOR (DOR [3]) [times]	Ki (DOR [3]) [nM]	Ki (hNK1)	Ki^hNK1/Ki^rNK1 (hNK1)	IC50 (MOR [4]; [6])	Kb (NK1R; [7])	Ki (rNK1) [nM]	IC50 (DOR [3]) [µM]	GPI/MVD IC50 ratio (MOR [4])	IC50 (DOR [1]) [nM]	Kb (NK1R) [nM]	binding selectivity for MOR over DOR (MOR [2]) [times]	IC50 (MOR [4]; [8]) [µM]
CC(C)C[C@H](NC(=O)[C@@H]1CCCN1C(=O)[C@H](Cc1ccc(F)cc1)NC(=O)CNC(=O)[C@@H](C)NC(=O)[C@@H](N)Cc1ccc(O)cc1)C(=O)N[C@@H](Cc1c[nH]c2ccccc12)C(=O)NCc1cc(C(F)(F)F)cc(C(F)(F)F)c1 [AKG190, H-Tyr-D-Ala-Gly-Phe(4-F)-Pro-Leu-Trp-NH-Bn(3′,5′-(CF3)2)]	5	12.1 ± 4 nM	None at 30 nM	< 2	0.004	−8.08 ± 0.10	20/1	20	0.2	5.61 ± 0.65 nM	1/6	0.065 µM and 0.0648 µM								
CC(C)C[C@H](NC(=O)[C@@H]1CCCN1C(=O)CNC(=O)[C@H](Cc1ccc(F)cc1)N(C)C(=O)CNC(=O)[C@@H](C)NC(=O)[C@@H](N)Cc1ccc(O)cc1)C(=O)N[C@@H](Cc1c[nH]c2ccccc12)C(=O)NCc1cc(C(F)(F)F)cc(C(F)(F)F)c1 [AKG131, H-Tyr-D-Ala-Gly-NMePhe(4-F)-Gly-Pro-Leu-Trp-NH-Bn(3′,5′-(CF3)2)] (H-Y[dA]G[NMePhe(4-F)]GPLW-{NH(3,5-(CF3)2-benzyl)})		30 nM and 29.7 nM	None at 100 nM			−6.40 ± 0.32	11/1		17	2 nM	1/8	0.063 µM and 0.0625 µM	35.8 ± 10.8 nM	89	0.038	2/1				
CC(C)C[C@H](NC(=O)[C@@H]1CCCN1C(=O)CNC(=O)[C@H](Cc1ccc(F)cc1)NC(=O)CNC(=O)[C@@H](C)NC(=O)[C@@H](N)Cc1ccc(O)cc1)C(=O)N[C@@H](Cc1c[nH]c2ccccc12)C(=O)NCc1cc(C(F)(F)F)cc(C(F)(F)F)c1 [AKG130, H-Tyr-D-Ala-Gly-Phe(4-F)-Gly-Pro-Leu-Trp-NH-Bn(3′,5′-(CF3)2)] (H-Y[dA]G[Phe(4-F)]GPLW-{NH(3,5-(CF3)2-benzyl)})		11.9 ± 1.56 nM	None at 300 nM		0.009	−7.69 ± 0.06	2/1		5	1.54 nM	1/47	0.34 µM and 0.339 µM	11 nM and 10.6 nM	72	0.011					
CC(C)C[C@H](NC(=O)[C@@H]1CCCN1C(=O)c1ccc(CNC(=O)[C@H](Cc2ccccc2)N(C)C(=O)CNC(=O)[C@@H](C)NC(=O)[C@@H](N)Cc2ccc(O)cc2)cc1)C(=O)N[C@@H](Cc1c[nH]c2ccccc12)C(=O)NCc1cc(C(F)(F)F)cc(C(F)(F)F)c1 [AKG125, H-Tyr-D-Ala-Gly-NMePhe-4-Amb-Pro-Leu-Trp-NH-Bn(3′,5′-(CF3)2)]	10		None at 100 nM		0.005	−7.92 ± 0.11				2.3 nM	1/13	0.47 µM and 0.471 µM		30	0.263	10/1	46.3 ± 13.4	8.36 ± 4.12	23	
CC(C)C[C@H](NC(=O)[C@@H]1CCCN1C(=O)CNC(=O)[C@H](CO)NC(=O)[C@H](Cc1ccccc1)N(C)C(=O)CNC(=O)[C@@H](C)NC(=O)[C@@H](N)Cc1ccc(O)cc1)C(=O)N[C@@H](Cc1c[nH]c2ccccc12)C(=O)NCc1cc(C(F)(F)F)cc(C(F)(F)F)c1 [AKG-CRA-136] (H-Y[dA]G[NMeF]SGPLW-{NH(3,5-(CF3)2-benzyl)})		22.6 ± 2.07 nM	None at 100 nM		0.003	−8.07 ± 0.18	1/9		38	9.23 ± 1.38 nM	1/17		27.6 ± 2.9 nM	156 ± 2.33	0.0851	5/1				0.108 ± 0.0448
CSCC[C@H](NC(=O)[C@H](Cc1ccccc1)NC(=O)CNC(=O)[C@@H](C)NC(=O)[C@@H](N)Cc1c(C)cc(O)cc1C)C(=O)N1CCC[C@H]1C(=O)N[C@@H](CC(C)C)C(=O)N[C@@H](Cc1c[nH]c2ccccc12)C(=O)NCc1cc(C(F)(F)F)cc(C(F)(F)F)c1 [TY032, H-Dmt-D-Ala-Gly-Phe-Met-Pro-Leu-Trp-NH-Bn(3′,5′-(CF3)2), reference compound]				> 6																
Cc1cc(O)cc(C)c1C[C@H](N)C(=O)N[C@H](C)C(=O)NCC(=O)N(C)[C@@H](Cc1ccccc1)C(=O)N[C@@H](CO)C(=O)NCC(=O)N1CCC[C@H]1C(=O)N[C@@H](CC(C)C)C(=O)N[C@@H](Cc1c[nH]c2ccccc12)C(=O)NCc1cc(C(F)(F)F)cc(C(F)(F)F)c1 [AKG-CRA-137] (H-[Dmt][dA]G[NMeF]SGPLW-{NH(3,5-(CF3)2-benzyl)})		16.4 ± 5.17 nM	None at 100 nM		0.0007	−8.82 ± 0.26			1	4.9 nM and 4.76 nM	1/18	0.0079 µM	26.3 ± 5.7 nM	87.5	0.00269	1/2				0.00787 ± 0.00257
Cc1cc(O)cc(C)c1C[C@H](N)C(=O)N[C@H](C)C(=O)NCC(=O)N(C)[C@@H](Cc1ccc(F)cc1)C(=O)N[C@@H](CO)C(=O)N1CCC[C@H]1C(=O)N[C@@H](CC(C)C)C(=O)N[C@@H](Cc1c[nH]c2ccccc12)C(=O)NCc1cc(C(F)(F)F)cc(C(F)(F)F)c1 [AKG135] (H-[Dmt][dA]G[NMePhe(4-F)]SPLW-{NH(3,5-(CF3)2-benzyl)}; N-terminus assumed)		15.4 ± 5.4 nM	None at 100 nM		0.0005	−8.93 ± 0.09	1/1		0.5	7.26 ± 0.59 nM	1/7	0.023 µM	28.7 ± 11.1 nM	51.7 ± 16.2	0.001	2/1				0.0234 ± 0.00474
CC(C)C[C@H](NC(=O)[C@@H]1CCCN1C(=O)[C@H](CO)NC(=O)[C@H](Cc1ccc(F)cc1)N(C)C(=O)CNC(=O)[C@@H](C)NC(=O)[C@@H](N)Cc1ccc(O)cc1)C(=O)N[C@@H](Cc1c[nH]c2ccccc12)C(=O)NCc1cc(C(F)(F)F)cc(C(F)(F)F)c1 [AKG134] (H-Y[dA]G[NMePhe(4-F)]SPLW-{NH(3,5-(CF3)2-benzyl)})		8.94 ± 0.795 nM	None at 30 nM		0.002	−8.27 ± 0.11	1/4		7	7.95 ± 0.87 nM	1/6		1.86 ± 0.43 nM	50.2 ± 16.9	0.0145	21/1				0.184 ± 0.0309
CC(C)C[C@H](NC(=O)[C@@H]1CCCN1C(=O)CNC(=O)[C@H](Cc1ccccc1)N(C)C(=O)CNC(=O)[C@@H](C)NC(=O)[C@@H](N)Cc1ccc(O)cc1)C(=O)N[C@@H](Cc1c[nH]c2ccccc12)C(=O)NCc1cc(C(F)(F)F)cc(C(F)(F)F)c1 [AKG113, H-Tyr-D-Ala-Gly-NMePhe-Gly-Pro-Leu-Trp-NH-Bn(3′,5′-(CF3)2)] (H-Y[dA]G[NMeF]GPLW-{NH(3,5-(CF3)2-benzyl)})		38.7 ± 9.69 nM	None at 100 nM		0.003	−8.23 ± 0.03	1/15		46		1/4	0.0792 µM	14.9 ± 2.9 nM	60	0.1	2/1			15	
Cc1cc(O)cc(C)c1C[C@H](N)C(=O)N[C@H](C)C(=O)NCC(=O)N(C)[C@@H](Cc1ccccc1)C(=O)N[C@@H](CO)C(=O)N1CCC[C@H]1C(=O)N[C@@H](CC(C)C)C(=O)N[C@@H](Cc1c[nH]c2ccccc12)C(=O)NCc1cc(C(F)(F)F)cc(C(F)(F)F)c1 [AKG132] (H-[Dmt][dA]G[NMeF]SPLW-{NH(3,5-(CF3)2-benzyl)})		7.66 ± 2.03 nM	None at 30 nM		0.0004	−9.03 ± 0.06	1/5		2	5.6 nM and 5.61 nM	1/6	0.043 µM	19.8 ± 2.9 nM	36	0.00525					0.0427 ± 0.006
CC(C)C[C@H](NC(=O)[C@@H]1CCCN1C(=O)c1ccc(NC(=O)[C@H](Cc2ccccc2)N(C)C(=O)CNC(=O)[C@@H](C)NC(=O)[C@@H](N)Cc2ccc(O)cc2)cc1)C(=O)N[C@@H](Cc1c[nH]c2ccccc12)C(=O)NCc1cc(C(F)(F)F)cc(C(F)(F)F)c1 [AKG176, H-Tyr-D-Ala-Gly-NMePhe-4-Abz-Pro-Leu-Trp-NH-Bn(3′,5′-(CF3)2)]			None at 300 nM		0.001	−8.69 ± 0.24	1/82		70	5.3 nM	1/19	0.0408 ± 0.008 µM		74	0.182	2/1	22.8 ± 5.53	117 ± 31.4		
